IC50 and selectivity data for 14 compounds are collected here from US20240101535A1, “DIHYDROISOQUINOLINONE DERIVATIVE AND APPLICATION THEREOF” (ETERN BIOPHARMA (SHANGHAI) CO., LTD., priority 2020, published 2024).

Where a name gives a salt, the structure may show the parent alone. Read-outs that look alike come from different tables or passages of the source.

One assay deals with MV4-11 cells. The experiment in a line: MV4-11 cell proliferation inhibition experiment (CellTiter-Glo). It counts as cell-based. The note with it: 6 days. As for the experimental part:
Test Example 2: MV4-11 Cell (ATCC: CRL-9591) Proliferation Inhibition Experiment
(§1) ATP in living cells was quantitatively detected by CellTiter-Glo (Promega-G7573) Luminescence Cell Viability Assay Kit to determine the effect of the compounds to be tested on cell proliferation. • Step 1: MV4-11 cells were seeded in 96-well plates (Greiner-655098) at a density of 1,500 cells per well with a volume of 140 μL per well; Cell culture medium components included RPM11640 (Gibco-A10491-01)+10% FBS (Gibco-10099-141C)+1% Penicillin-Streptomycin (5,000 U/mL, Gibco-15070-063). • Step 2: On the day of cell seeding, the cells were treated with the compound to be tested. The compound to be tested was diluted with a 3-fold gradient, and a total of 9 concentration gradients were set. DMSO (Sigma, D2650) with 0.5% final concentration or a DMSO solution containing the compound to be tested was added per well with 2 or 3 replicate wells at each concentration point. The plates were incubated at 37° C. in a 5% CO2 incubator (Thermo Scientific Steri-Cycle 371) for 6 days. • Step 3: The cell viability in the control and treatment groups was detected with CellTiter-Glo Luminescent Cell Viability Assay Kit. 50 μL of CellTiter-Glo was added per well, mixed well, and incubated for 15 min at room temperature protected from light. According to the kit instructions, the chemiluminescence signal was read using a multifunctional microplate reader (EnVision, PerkinElmer).
(§2) The inhibition percentage (%) of the compound at each concentration point was calculated by the following formula:
(§3) Inhibition Percentage (%)=(1−signal value of the group treated with the compound/signal value of the group treated with DMSO)*100.
The value of cell proliferation semi-inhibitory concentration IC50 was calculated using GraphPad Prism software, and the results are shown in Table 2.
Background: ATP-based viability assays read luminescence as a measure of living cells.

Assay [1] addresses WDR5 protein (22-334aa) with MLL1 polypeptide (3672-3773aa) (Homo sapiens, UniProt P61964). In words: WDR5-MLL PPI inhibitory activity test (HTRF). Type of assay: binding. The following applies: His-tagged WDR5 and biotin-tagged MLL1 polypeptide. The gist of the method: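 His-tagged WDR5 (42 nM working solution) was preincubated with compound for 60 min at room temperature in 25 mM HEPES pH 7.5, 100 mM NaCl, 0.05% Tween 20 (final DMSO 0.5%). Biotin-MLL1 peptide (333 nM working solution) was then added for 10 min, followed by Eu-cryptate/streptavidin-APC detection for 60 min. The 665/620 nm ratio gave IC50.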
Background: Time-resolved FRET reads energy transfer from a long-lived donor to a nearby acceptor.

The next assay relates to Jurkat cells. In words: Jurkat cell proliferation inhibition experiment (CellTiter-Glo). The note with it: for IC50: Homo sapiens, 144 h, Jurkat cells, 6 days, CellTiter-Glo, read-out: Jurkat cell proliferation inhibitory activity IC50; for selectivity: ratio of Jurkat cell IC50 to MV4-11 cell IC50. Type of assay: cell-based. How it is done:
Test Example 3: Jurkat (ATCC: TIB-152) Cell Proliferation Inhibition Experiment
as §1, with “Jurkat” for “MV4-11”
as §2, §3
The value of cell proliferation semi-inhibitory concentration IC50 was calculated using GraphPad Prism software, and the results are shown in Table 3. The ratio of Jurkat cell proliferation inhibitory activity IC50 to MV4-11 cell proliferation inhibitory activity IC50 may be further calculated to obtain selectivity.

Setting [2] is: Homo sapiens, 144 h, read-out: MV4-11 cell proliferation inhibitory activity IC50.
Setting [3] is: Homo sapiens, 144 h, read-out: cell proliferation inhibitory activity.

Regarding `CCOc1cc([C@H](C)N2C[C@@]3(CC3(F)F)c3c(CN(C)C)cc(Cn4ccnc4NC)cc3C2=O)ncc1C#N` (stereo in doubt) [Compound 94, 6-(-1-(5′-((dimethylamino)methyl)-2,2-difluoro-7′-((2-(methylamino)-1H-imidazol-1-yl)methyl)-1′-one-1′H-spiro[cyclopropan-1,4′-isoquinoline]-2′(3′H)-yl)ethyl)-4-ethoxynicotinonitrile formate salt], the IC50 with MV4-11 cells (setting [2]) is 3 nM; in the assay with MV4-11 cells (setting [3]) it was less than 50 nM; in assay [1], less than 20 nM; in the assay on Jurkat cells, 1400 nM. In the assay with Jurkat cells, the selectivity is on record as 466 time.
As to `CCOc1cc([C@H](C)N2CC3(CC3)c3c(CN(C)C)cc(Cn4ccnc4NC)cc3C2=O)ncc1F` [Compound 1, (S)-5′-((dimethylamino)methyl)-2′-(1-(4-ethoxy-5-fluoropyridine-2-yl)ethyl)-7′-((2-(methylamino)-1H-imidazol-1-yl)methyl)-2′,3′-dihydro-1′H-spiro[cyclopropan-1,4′-isoquinoline]-1′-one], the IC50 with MV4-11 cells (setting [2]) is 19 nM; in the assay on MV4-11 cells (setting [3]), 50 to 200 nM; in assay [1], less than 20 nM; in the assay with Jurkat cells it was 6800 nM. Besides, the selectivity in the assay with Jurkat cells worked out at 357 time.
For `CCOc1cc([C@H](C)N2CC3(CCC3)c3c(CN(C)C)cc(Cn4ccnc4NC)cc3C2=O)ncc1C#N` [Compound 23, (S)-6-(1-(5′-((dimethylamino)methyl)-7′-((2-(methylamino)-1H-imidazol-1-yl)methyl)-1′-one-1′H-spiro[cyclobutan-1,4′-isoquinoline]-2′(3′H)-yl)ethyl)-4-ethoxynicotinonitrile] the same measures were 4 nM, less than 50 nM, less than 20 nM, 1400 nM and 350 time.
For the compound `CCOc1cc([C@H](C)N2CC3(CCC3)c3c(CN4CC[C@@H](O)C4)cc(Cn4ccnc4NC)cc3C2=O)ncc1F` [Compound 84, 2′-((S)-1-(4-ethoxy-5-fluoropyridine-2-yl)ethyl)-5′-(((R)-3hydroxylpyrrolidin-1-yl)methyl)-7′-((2-(methylamino)-1H-imidazol-1-yl)methyl)-2′,3′-dihydro-1′H-spiro[cyclobutyl-1,4′-isoquinoline]-1′-one], the IC50 is less than 50 nM in the assay with MV4-11 cells (setting [3]) and less than 20 nM in assay [1].
For `CCOc1cc([C@H](C)N2CC3(CCC3)c3c(CN4CC[C@H](O)C4)cc(Cn4ccnc4NC)cc3C2=O)ncc1F` [Compound 85, 2′-((S)-1-(4-ethoxy-5-fluoropyridine-2-yl)ethyl)-5′-(((S)-3-hydroxylpyrrolidin-1-yl)methyl)-7′-((2-(methylamino)-1H-imidazol-1-yl)methyl)-2′,3′-dihydro-1′H-spiro[cyclobutan-1,4′-isoquinoline]-1′-one], the IC50 in the assay with MV4-11 cells (setting [3]) is less than 50 nM; in assay [1], less than 20 nM.
For `CCOc1cc(CN2CC3(CCC3)c3c(CN4CCN(C)CC4)cc(Cn4ccnc4NC)cc3C2=O)nn1C` [Compound 87, 2′-((5-ethoxy-1-methyl-1H-pyrazole-3-yl)methyl)-7′-((2-(methylamino)-1H-imidazol-1-yl)methyl)-5′-((4-methylpiperazin-1-yl)methyl)-2′,3′-dihydro-1′H-spiro[cyclobutan-1,4′-isoquinoline]-1′-one], the results for the IC50 (in the assay with MV4-11 cells (setting [3]); in assay [1]) were less than 50 nM and less than 20 nM, respectively.
Take `CCOc1cc([C@H](C)N2C[C@]3(CC3(F)F)c3c(CN(C)C)cc(Cn4ccnc4NC)cc3C2=O)ncc1F` [Compound 91, (S)-5′-((dimethylamino)methyl)-2′-((S)-1-(4-ethoxy-5-fluoropyridine-2-yl)ethyl)-2,2-difluoro-7′-((2-(methylamino)-1H imidazol-1-yl)methyl)-2′, 3′-dihydro-1′H-spiro[cyclopropan-1,4′-isoquinoline]-1′-one]: the IC50 is 10 nM in the assay on MV4-11 cells (setting [2]), less than 50 nM with MV4-11 cells (setting [3]), less than 20 nM in assay [1] and 3100 nM in the assay with Jurkat cells. Also, in the assay with Jurkat cells, the selectivity was 310 time.
With `CCOc1cc([C@H](C)N2CC3(CC(F)(F)C3)c3c(CN(C)C)cc(Cn4ccnc4NC)cc3C2=O)ncc1F` [Compound 98], the figures for the IC50 (in the assay on MV4-11 cells (setting [3]); in assay [1]) were 50 to 200 nM and less than 20 nM, respectively.
For `CCOc1cc([C@H](C)N2CC3(CC(F)(F)C3)c3c(CN(C)C)cc(Cn4ccnc4NC)cc3C2=O)ncc1C#N` [Compound 99], the IC50 is 4 nM with MV4-11 cells (setting [2]), less than 50 nM in the assay on MV4-11 cells (setting [3]), less than 20 nM in assay [1] and 1200 nM in the assay with Jurkat cells. The selectivity with Jurkat cells came out at 300 time.
Regarding `[2H]C([2H])([2H])N(Cc1cc(Cn2ccnc2NC)cc2c1C1(CCC1)CN(C(C)c1cc(OCC)c(C#N)cn1)C2=O)C([2H])([2H])[2H]` (stereo not shown) [Compound 100, 6-(1-(5′-((bis(methyl-d3)amino)methyl)-7′-((2-(methylamino)-1H-imidazol-1′-yl)methyl)-1′-oxo-1′H-spiro [cyclobutan-1,4′-isoquinoline]-2′(3′H)-yl)ethyl)-4-ethoxynicotinonitrile], the IC50 in the assay on MV4-11 cells (setting [2]) was 5 nM; with MV4-11 cells (setting [3]), less than 50 nM; in assay [1], less than 20 nM; in the assay with Jurkat cells, 1600 nM. In addition, the selectivity with Jurkat cells is listed as 320 time.
For the compound `[2H]C(C)(c1cc(OCC)c(C#N)cn1)N1CC2(CCC2)c2c(CN(C)C)cc(Cn3ccnc3NC)cc2C1=O` (stereo not shown) [Compound 101], the IC50 with MV4-11 cells (setting [3]) was less than 50 nM; in assay [1] it was less than 20 nM.
For the compound `CNc1nccn1Cc1cc(CN(C)C)c2c(c1)C(=O)N(C(C)c1ccc(F)c(OC)c1)CC21CCC1` (stereo not shown) [Compound 107, 5′-((dimethylamino)methyl)-2′-(1-(4-fluoro-3-methoxyphenyl)ethyl)-7′-((2-(methylamino)-1H-imidazol-1-yl)methyl)-2′,3′-dihydro-1′H-spiro[cyclobutan-1,4′-isoquinoline]-1′-one], the IC50 is less than 50 nM with MV4-11 cells (setting [3]) and less than 20 nM in assay [1].
With `[2H]C([2H])([2H])C([2H])([2H])Oc1cc(C(C)N2CC3(CCC3)c3c(CN(C)C)cc(Cn4ccnc4NC)cc3C2=O)ncc1C#N` (stereo not shown) [Compound 111, 6-(1-(5′-((dimethylamino)methyl)-7′-((2-(methylamino)-1H-imidazol-1-yl)methyl)-1′-oxo-1′H-spiro[cyclobutan-1,4′-isoquinoline]-2′(3′H)-yl)ethyl)-4-(ethoxy-d5)nicotinonitrile], the IC50 in the assay with MV4-11 cells (setting [3]) is less than 50 nM; in assay [1], less than 20 nM.
Turning to “(S)-4-ethoxy-6-(1-(7′-((2-(methylamino)-1H-imidazol-1-yl)methyl)-5′-(morpholinomethyl)-1′-one-1′H-spiro[cyclopropan-1,4′-isoquinoline]-2′(3′H)-yl)ethyl)nicotinonitrile [Compound 60]”, the IC50 with MV4-11 cells (read-out: cell proliferation inhibitory activity) was less than 50 nM; in assay [1] it was less than 20 nM.
